Reference: patent US4525348A, “Pranoprofen gelled ointment” (priority 1983, dated 1985)

How the values were obtained:
[1] = oral administration, as compared with indomethacin or other nonsteroid agents; cited from earlier work
[2] = Percutaneous absorption and excretion (Experiment 8); conditions: rat
Source text: Male Donryu rats weighing 120-140 g were divided into groups of 4 animals each. The backs of the rats were shaved with an electric clipper and an electric shaver. […] After this application, the test ointment remaining was wiped off at a set time with absorbent cotton moistened with 50% ethanol. The contained ^14 C was eluted with methanol and determined by conventional methods.

Half life of disappearance from blood ([2]; absorbed pranoprofen, topical): about 5 hours
Excretion route ([2]; in vivo): excreted mainly into urine and feces
Compound: CC(C(=O)O)c1ccc2c(c1)Cc1cccnc1O2 (stereo not drawn) [pranoprofen]
Adverse effects such as gastroenteric disorders [1]: very rarely
